Test results from PubChem BioAssay AID504497 (Sanford-Burnham Center for Chemical Genomics, 2011).

Target: Sentrin-specific protease 7 (Homo sapiens) (UniProt Q9BQF6)
Assay: SENP7 protease inhibitors, SAR follow-up, biochemical, luminescence (AID 504497)
Conditions: recombinant SENP7, Z-RLRGG-aminoluciferin luminescence

Sequence of Sentrin-specific protease 7 (Homo sapiens) (Q9BQF6 706-1050 limits assumed): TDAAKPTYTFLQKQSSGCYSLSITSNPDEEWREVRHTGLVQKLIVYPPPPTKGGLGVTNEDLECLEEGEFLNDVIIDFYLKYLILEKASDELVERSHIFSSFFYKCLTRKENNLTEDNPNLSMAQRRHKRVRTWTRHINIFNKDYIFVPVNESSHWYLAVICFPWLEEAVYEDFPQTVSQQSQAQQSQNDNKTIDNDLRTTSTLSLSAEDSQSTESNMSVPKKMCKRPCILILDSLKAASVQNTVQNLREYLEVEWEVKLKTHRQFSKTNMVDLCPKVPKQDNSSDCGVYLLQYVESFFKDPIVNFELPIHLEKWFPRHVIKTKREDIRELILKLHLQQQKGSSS

`N#Cc1c(NC(=O)CSc2ncn[nH]2)sc2c1CCCCC2` showed an IC50 of 5.66 µM.
